Test results from paper PMC9318203, “Squaramide-Tethered Sulfonamides and Coumarins: Synthesis, Inhibition of Tumor-Associated CAs IX and XII and Docking Simulations” (International Journal of Molecular Sciences, 2022).
Several values for one entry are separate records, joined by “and”; a condition that tells them apart may be missing. Identical values can stand only once.

Assays:
hCA II = target: T1, hCA II (Homo sapiens, UniProt P00918); experiment: stopped-flow CO2 hydrase assay, hCA II; format: biochemical
T1 construct: made in house
Method: (§1) For that purpose, the stopped-flow CO2 hydration assay was used (Table 1).
(§2) The inhibitory properties of title compounds against CAs were determined using the stopped-flow CO2 hydrase assay, as previously reported.

hCA IX = target: T2, hCA IX (Homo sapiens, UniProt Q16790); experiment: stopped-flow CO2 hydrase assay, hCA IX; format: biochemical; details: for S.I. I/IX: Ki (CA I)/Ki (CA IX); for S.I. II/IX: Ki (CA II)/Ki (CA IX)
T2 construct: made in house
Method: as §1, §2

hCA I = target: T3, hCA I (Homo sapiens, UniProt P00915); experiment: stopped-flow CO2 hydrase assay, hCA I; format: biochemical
T3 construct: made in house
Method: as §1, §2

hCA XII = target: T4, hCA XII (Homo sapiens, UniProt O43570); experiment: stopped-flow CO2 hydrase assay, hCA XII; format: biochemical; details: for S.I. I/XII: Ki (CA I)/Ki (CA XII); for S.I. II/XII: Ki (CA II)/Ki (CA XII)
T4 construct: made in house
Method: as §1, §2

[1] = sulfonamido-containing squaramides, mean from 3 assays, stopped flow
[2] = coumarin-containing squaramides, incubation time 6 h, mean from three assays

T3 sequence (P00915 whole entry): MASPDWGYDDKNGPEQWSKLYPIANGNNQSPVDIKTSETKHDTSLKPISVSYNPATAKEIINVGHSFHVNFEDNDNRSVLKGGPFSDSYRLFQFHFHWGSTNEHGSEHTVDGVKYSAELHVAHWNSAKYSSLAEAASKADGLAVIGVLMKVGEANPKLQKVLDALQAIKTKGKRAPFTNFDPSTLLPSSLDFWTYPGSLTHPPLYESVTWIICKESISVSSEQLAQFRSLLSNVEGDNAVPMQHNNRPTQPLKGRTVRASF
T4 sequence (O43570 25-354): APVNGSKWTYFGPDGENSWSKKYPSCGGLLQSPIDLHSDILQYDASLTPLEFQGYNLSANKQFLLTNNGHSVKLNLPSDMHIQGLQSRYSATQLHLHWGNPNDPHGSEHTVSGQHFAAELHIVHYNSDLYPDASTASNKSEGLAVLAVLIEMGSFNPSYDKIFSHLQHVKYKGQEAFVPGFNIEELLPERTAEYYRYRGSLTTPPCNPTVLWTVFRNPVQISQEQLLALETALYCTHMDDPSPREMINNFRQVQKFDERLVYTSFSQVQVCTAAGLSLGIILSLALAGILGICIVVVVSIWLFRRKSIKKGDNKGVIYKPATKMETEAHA

| Compound | Ki (hCA II; [1]) [nM] | melting point [°C] | S.I. I/IX (hCA IX) | S.I. II/IX (hCA IX) | Ki (hCA IX; [1]) [nM] | Ki (hCA I; [1]) [nM] | S.I. I/XII (hCA XII) | S.I. II/XII (hCA XII) | Ki (hCA XII; [1]) | S.I. (range of the selectivity indexes) (hCA IX; range over I/IX, I/XII, II/IX, II/XII) | Ki (hCA II; [2]) [nM] | Ki (hCA IX; [2]) [nM] | Ki (hCA I; [2]) [nM] | Ki (hCA XII; [2]) [nM] |
| --- | --- | --- | --- | --- | --- | --- | --- | --- | --- | --- | --- | --- | --- | --- |
| NS(=O)(=O)c1ccc(CCNc2c(Nc3ccccc3)c(=O)c2=O)cc1 [Compound 5a, 3-Phenylamino-4-[2′-(4″-sulfonamidophenyl)ethylamino]cyclobut-3-ene-1,2-dione] | 720 | > 250 | 2.8 | 9.6 | 75.3 | 211 | 2.2 | 7.4 | 96.8 nM | – | – | – | – | – |
| COc1ccc(Nc2c(NCCc3ccc(S(N)(=O)=O)cc3)c(=O)c2=O)cc1 [Compound 5b, 3-(p-Methoxyphenyl)amino-4-[2′-(4″-sulfonamidophenyl)ethylamino]cyclobut-3-ene-1,2-dione] | 724 | > 250 | 4.0 | 7.8 | 92.5 | 373 | 2.4 | 4.6 | 158 nM | – | – | – | – | – |
| NS(=O)(=O)c1ccc(CCNc2c(Nc3ccc(Cl)cc3)c(=O)c2=O)cc1 [Compound 5c, 3-(p-Chlorophenyl)amino-4-[2′-(4″-sulfonamidophenyl)ethylamino]cyclobut-3-ene-1,2-dione] | 819 | > 250 | 1.8 | 1.7 | 490 | 881 | 9.8 | 9.1 | 90.2 nM | – | – | – | – | – |
| NS(=O)(=O)c1ccc(CCNc2c(Nc3ccc(Br)cc3)c(=O)c2=O)cc1 [Compound 5d, 3-(p-Bromophenyl)amino-4-[2′-(4″-sulfonamidophenyl)ethylamino]cyclobut-3-ene-1,2-dione] | 910 | > 250 | 6.8 | 14 | 67.6 | 457 | 5.3 | 11 | 85.5 nM | 6.8–14 | – | – | – | – |
| NS(=O)(=O)c1ccc(CCNc2c(Nc3ccc(I)cc3)c(=O)c2=O)cc1 [Compound 5e, 3-(p-Iodophenyl)amino-4-[2′-(4″-sulfonamidophenyl)ethylamino]cyclobut-3-ene-1,2-dione] | 856 | > 250 | 5.1 | 9.2 | 92.7 | 471 | 5.2 | 9.5 | 90.3 nM | – | – | – | – | – |
| NS(=O)(=O)c1ccc(Nc2c(Nc3ccccc3)c(=O)c2=O)cc1 [Compound 8, 3-Phenylamino-4-[4′-(sulfonamidophenyl)]aminocyclobut-3-ene-1,2-dione] | 65.9 | > 250 | 5.0 | 3.4 | 19.5 | 98 | 15 | 10 | 6.57 nM | – | – | – | – | – |
| COc1c(Nc2cccc(S(N)(=O)=O)c2)c(=O)c1=O [Compound 10, 3-Methoxy-4-[3′-(sulfonamidophenyl)]aminocyclobut-3-ene-1,2-dione] | 40.9 | – | 3.0 | 1.6 | 26.2 | 79.9 | 14 | 7.1 | 5.78 nM | – | – | – | – | – |
| NS(=O)(=O)c1cccc(Nc2c(Nc3ccccc3)c(=O)c2=O)c1 [Compound 11] | 95.5 | – | 20 | 3.2 | 29.4 | 580 | 63 | 10 | 9.5 nM and 9.15 nM | – | – | – | – | – |
| Cc1cc(=O)oc2cc(OCCCNc3c(Nc4ccccc4)c(=O)c3=O)ccc12 [Compound 16a, 3-{[3′-((4″-Methyl-2″-oxo-2″H-chromen-7″-yl)oxy)propyl]amino}-4-phenylaminocyclobut-3-ene-1,2-dione] | – | > 250 | – | – | – | – | – | – | – | – | > 10000 | 79.3 | > 10000 | 42.1 |
| Cc1cc(=O)oc2cc(OCCCCCCCCCNc3c(Nc4ccccc4)c(=O)c3=O)ccc12 [Compound 16c, 3-{[9′-((4″-Methyl-2″-oxo-2″H-chromen-7″-yl)oxy)nonyl]amino}-4-phenylaminocyclobut-3-ene-1,2-dione] | – | 200 to 201 | – | – | – | – | – | – | – | – | > 10000 | 19.2 | > 10000 | 7.23 |
| Cc1cc(=O)oc2cc(OCCCCCCCCCCCCNc3c(Nc4ccccc4)c(=O)c3=O)ccc12 [Compound 16d, 3-{[12′-((4″-Methyl-2″-oxo-2″H-chromen-7″-yl)oxy)dodecyl]amino}-4-phenylaminocyclobut-3-ene-1,2-dione] | – | 178 to 179 | – | – | – | – | – | – | – | – | > 10000 | 18.1 | > 10000 | 7.91 |
| Cc1cc(=O)oc2cc(OCCCCCNc3c(Nc4ccc(Cl)cc4)c(=O)c3=O)ccc12 [Compound 16g, 3-[(4′-Chlorophenyl)amino]-4-{[5″-(4‴-methyl-2‴-oxo-2‴H-chromen-7‴-yl)oxypentyl]amino}cyclobut-3-ene-1,2-dione] | – | 225 to 227 | – | – | – | – | – | – | – | – | > 10000 | 65.3 | > 10000 | 24.4 |
| Cc1cc(=O)oc2cc(OCCCCCNc3c(Nc4ccc(Br)cc4)c(=O)c3=O)ccc12 [Compound 16h, 3-[(4′-Bromophenyl)amino]-4-{[5″-(4‴-methyl-2‴-oxo-2‴H-chromen-7‴-yl)oxypentyl]amino}cyclobut-3-ene-1,2-dione] | – | 248 to 249 | – | – | – | – | – | – | – | – | > 10000 | 46.2 | > 10000 | 13.9 |
| Cc1cc(=O)oc2cc(OCCCCCNc3c(Nc4ccc(I)cc4)c(=O)c3=O)ccc12 [Compound 16i, 3-[(4′-Iodophenyl)amino]-4-{[5″-(4‴-methyl-2‴-oxo-2‴H-chromen-7‴-yl)oxypentyl]amino}cyclobut-3-ene-1,2-dione] | – | > 250 | – | – | – | – | – | – | – | – | > 10000 | 57 | > 10000 | 21.5 |
| Cc1c(C)c2ccc(OCCCCCNc3c(Nc4ccccc4)c(=O)c3=O)cc2oc1=O [Compound 16j, 3-{[5′-((3″,4″-Dimethyl-2″-oxo-2″H-chromen-7″-yl)oxy)pentyl]amino}-4-phenylaminocyclobut-3-ene-1,2-dione] | – | > 250 | – | – | – | – | – | – | – | – | > 10000 | 107 | > 10000 | 58.3 |
| COc1ccc(Nc2c(NCCCCCOc3ccc4c(C)c(C)c(=O)oc4c3)c(=O)c2=O)cc1 [Compound 16k, 3-{[5′-(3″,4″-Dimethyl-2″-oxo-2″H-chromen-7″-yl)oxypentyl]amino}-4-(4‴-methoxyphenylamino)cyclobut-3-ene-1,2-dione] | – | > 250 | – | – | – | – | – | – | – | – | > 10000 | 86.5 | > 10000 | 45.4 |
| Cc1c(C)c2ccc(OCCCCCNc3c(Nc4ccc(F)cc4)c(=O)c3=O)cc2oc1=O [Compound 16l, 3-{[5′-(3″,4″-Dimethyl-2″-oxo-2″H-chromen-7″-yl)oxypentyl]amino}-4-(4‴-fluorophenylamino)cyclobut-3-ene-1,2-dione] | – | > 250 | – | – | – | – | – | – | – | – | > 10000 | 113 | > 10000 | 62.9 |
| Cc1c(C)c2ccc(OCCCCCNc3c(Nc4ccc(Cl)cc4)c(=O)c3=O)cc2oc1=O [Compound 16m, 3-[(4′-Chlorophenyl)amino]-4-{[5″-(3‴,4‴-dimethyl-2‴-oxo-2‴H-chromen-7‴-yl)oxypentyl]amino}cyclobut-3-ene-1,2-dione] | – | > 250 | – | – | – | – | – | – | – | – | > 10000 | 96.6 | > 10000 | 43 |
| Cc1c(C)c2ccc(OCCCCCNc3c(Nc4ccc(Br)cc4)c(=O)c3=O)cc2oc1=O [Compound 16n, 3-[(4′-Bromophenyl)amino]-4-{[5″-(3‴,4‴-dimethyl-2‴-oxo-2‴H-chromen-7″-yl)oxypentyl]amino}cyclobut-3-ene-1,2-dione] | – | – | – | – | – | – | – | – | – | – | > 10000 | 132 | > 10000 | 69.6 |
